The source of these data is PMC6151598, “Soluble Epoxide Hydrolase Inhibitory Activity of Components Isolated from Apios americana Medik” (Molecules : A Journal of Synthetic Chemistry and Natural …, 2017).

Where “and” joins values, the source holds several entries; their conditions need not be identical. Equal values may be shown once. A value given as a limit tells only on which side of the number the result lay.

For assay [1], the target named is T1, soluble epoxide hydrolase (sEH) (Homo sapiens, UniProt P34913).
T1 construct: purchased Cayman (Ann Arbor, MI, USA) 10011669
T1 sequence (P34913 1-555): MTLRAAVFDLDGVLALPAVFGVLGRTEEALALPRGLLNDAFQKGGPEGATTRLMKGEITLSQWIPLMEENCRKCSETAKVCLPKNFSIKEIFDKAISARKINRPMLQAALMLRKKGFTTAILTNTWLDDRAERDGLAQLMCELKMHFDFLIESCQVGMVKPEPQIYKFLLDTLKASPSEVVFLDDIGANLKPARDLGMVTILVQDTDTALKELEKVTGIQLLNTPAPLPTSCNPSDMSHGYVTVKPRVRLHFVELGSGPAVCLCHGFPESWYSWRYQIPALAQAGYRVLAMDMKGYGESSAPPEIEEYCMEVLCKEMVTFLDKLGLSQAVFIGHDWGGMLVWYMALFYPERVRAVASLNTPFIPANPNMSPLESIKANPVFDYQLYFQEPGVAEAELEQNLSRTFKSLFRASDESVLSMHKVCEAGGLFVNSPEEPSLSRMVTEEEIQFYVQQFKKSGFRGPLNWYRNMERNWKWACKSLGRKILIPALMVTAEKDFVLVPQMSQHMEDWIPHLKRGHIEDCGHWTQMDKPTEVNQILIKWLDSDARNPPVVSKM
Put plainly: sEH inhibition assay (fluorometric, PHOME substrate). Type of assay: biochemical. The note with it: for IC50: concentrations 6.2 to 100 μM, triplicate, read-out: IC50, inhibitory activity on sEH; for Inhibitory ratio on sEH: tested at 100 μM, % of the control value. Here is the method: The sEH assay was performed as described previously. Briefly, 130 µL of sEH in 25.0 mM Bis-Tris-HCl buffer (pH 7.0) and 20.0 µL of the compounds (1–0.06 mM concentration) diluted in MeOH, were added in 96-well plate, to which 50.0 µL of 20.0 µM PHOME was added in the mixture. After initiating the enzyme reaction at 37 °C, the products by hydrolysis of the substrate were monitored at excitation and emission of 330 and 465 nm for one hour. Inhibitory activity (%) = 100 − [(C40 − C0) − (S40 − S0)/(C40 − C0)] × 100 (1) where C40 and S40 were the fluorescence of the control and inhibitor, respectively, after 40 min, S0 and C0 is the fluorescence of inhibitor and control, respectively, at 0 min.

Assay [2] addresses T1, soluble epoxide hydrolase (sEH). In words: sEH enzyme kinetics (Lineweaver–Burk and Dixon plots). The note with it: for Binding mode (inhibition type): Lineweaver–Burk plot. Type of assay: biochemical.
In assay [3] the test system is androgen receptors. The arrangement: method as in PMID 23402539, PMID 26806328. The note with it: cited from earlier work.
The subject of assay [4] is estrogen receptors. The arrangement: method as in PMID 23402539, PMID 26806328. The note with it: cited from earlier work.

Take `COc1cc(O)cc2c1C(=O)C1(O)c3ccc(O)cc3OC1O2` (centres unmarked) [Compound 1, 5-methoxy-2,5,7,4′-tetrahydroxy-coumaronochromone]: in assay [1], the IC50 is < 50 µM and 43.2 µM; the “Inhibitory ratio on sEH” value is “over 50%”. Besides, the “Binding mode (inhibition type)” value in assay [2] was “competitive inhibitor”. In addition, in assay [2] (inhibitor 0, 25, 50 μM, substrate 3.1 to 25 μM, read-out: Ki (Dixon plot)), the inhibitory constant (Ki) is 21 µM.
Consider `O=c1c(-c2ccc(O)cc2O)coc2cc(O[C@@H]3O[C@H](CO)C(O)[C@H](O)C3O)cc(O)c12` (some centres unmarked) [Compound 6, 2′-hydroxygenistein-7-O-glucoside], for which the “Blocking of [3H]-dihydrotestosterone binding with androgen receptors” value in assay [3] was “blocked the binding”.
With `O=c1c(-c2ccc(O)cc2O)coc2cc(O)cc(O)c12` [2′-hydroxygenistein], the “Binding activity with estrogen receptors” value in assay [4] was “binding activities”.
For `O=c1c(-c2ccc(O)cc2)coc2cc(O)cc(O)c12` [Compound 2, genestein], the “Binding activity with estrogen receptors” value in assay [4] is “binding activities”. The “Binding mode (inhibition type)” value in assay [2] was “mixed inhibitor”.
Take `O=C(O)c1ccc(O)cc1` [Compound 8, 4-hydroxybenzoic acid]: in assay [1], the IC50 stood at 69.3 ± 1.9 µM and the “Inhibitory ratio on sEH” value is reported as “over 50%”.
On to `O=c1c(-c2ccc(O)cc2O)coc2cc(O[C@@H]3O[C@H](CO[C@@H]4O[C@H](CO)[C@@H](O)[C@H](O)[C@H]4O)[C@@H](O)[C@H](O)[C@H]3O)cc(O)c12` [Compound 7, 2′-hydroxygenistein-7-O-gentibioside], for which the “Blocking of [3H]-dihydrotestosterone binding with androgen receptors” value in assay [3] was “blocked the binding”.
